Laboratory results taken from PubChem BioAssay (NCI).
Values joined by “and” are separate entries in the source; they are usually repeats but may differ in a detail not shown here. Equal entries are not always repeated.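 Interpolation was linear, between the two tested concentrations surrounding the appropriate level; five concentrations were tested over 48 hours in 96-well plates. At the GI50, growth is halved. TGI: concentration producing complete growth inhibition.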

Assays:
Assay in all cases: growth of human tumour cells (NCI), 48 h
A549 NSCLC = test system: A549 NSCLC
RXF 393 renal = test system: RXF 393 renal
BT-549 breast = test system: BT-549 breast
IGROV1 ovarian = test system: IGROV1 ovarian
SK-MEL-2 melanoma = test system: SK-MEL-2 melanoma
CAKI-1 renal = test system: CAKI-1 renal
HCC-2998 colon = test system: HCC-2998 colon
OVCAR-8 ovarian = test system: OVCAR-8 ovarian
SF-539 CNS = test system: SF-539 CNS
M14 melanoma = test system: M14 melanoma

Structure (SMILES)	TGI (A549 NSCLC)	TGI (RXF 393 renal)	TGI (BT-549 breast)	TGI (IGROV1 ovarian)	TGI (SK-MEL-2 melanoma)	TGI (CAKI-1 renal)	TGI (HCC-2998 colon)	TGI (OVCAR-8 ovarian)	TGI (SF-539 CNS)	TGI (M14 melanoma)	GI50 (A549 NSCLC)	GI50 (RXF 393 renal)	GI50 (BT-549 breast) [µM]	GI50 (IGROV1 ovarian) [µM]	GI50 (SK-MEL-2 melanoma)	GI50 (CAKI-1 renal)	GI50 (HCC-2998 colon)	GI50 (OVCAR-8 ovarian)	GI50 (SF-539 CNS)	GI50 (M14 melanoma) [µM]
OCCN(CO)CO	> 100 µM	> 100 µM	> 100 µM	> 100 µM	> 100 µM	> 100 µM	> 100 µM	> 100 µM	> 100 µM	> 100 µM	–	–	–	–	–	–	–	–	–	–
COc1ccc(/C=C/C(=O)c2cc3c(N)c(C(=O)Nc4ccc(OC)cc4)sc3nc2C)cc1	> 50 µM	–	> 50 µM	> 50 µM	> 50 µM	> 50 µM	–	> 50 µM	1.54 µM	–	0.231 µM	0.124 µM	0.571	0.551	0.359 µM	0.593 µM	0.174 µM	0.334 µM	0.327 µM	0.19
CSC1=Nc2c(c(C)c(-c3ccccc3)n2COC(CO)CO)C2=NC(=O)CC(C)N12 (stereo not given)	> 100 µM	> 100 µM	> 100 µM	> 100 µM	> 100 µM	> 100 µM	> 100 µM	> 100 µM	> 100 µM	–	> 100 µM	> 100 µM	> 100	> 100	> 100 µM	> 100 µM	> 100 µM	> 100 µM	> 100 µM	–
C[As](C)SC1OCC(O)C(O)C1O (stereo not given)	> 33.7 µM	3.39 µM	1.5 µM	6.71 µM	2.53 µM	0.273 µM	0.466 µM	2.82 µM	0.595 µM	0.925 µM	1.63 µM	0.321 µM	0.363	0.805	0.58 µM	0.0514 µM	0.224 µM	0.284 µM	0.111 µM	0.128
COc1cc2cc(Oc3cccc(NC(=O)Nc4cc(C(F)(F)F)cc(C(F)(F)F)c4)c3)c(C)nc2cc1OC	4.75 µM	4.79 µM	3.76 µM	2.3 µM	4.24 µM	5.1 µM	3.15 µM	4.22 µM	3.21 µM	2.88 µM	1.42 µM	2.06 µM	1.75	0.509	1.82 µM	1.41 µM	1.53 µM	1.63 µM	1.45 µM	1
CCOC(=O)c1c(CN2CCN(C)CC2)nc2ccc(Cl)cc2c1-c1ccccc1	28.5 µM	15.4 µM	20.8 µM	19.9 µM	26.2 µM	13.6 µM	4.4 µM	29.6 µM	21 µM	3.78 µM	14.1 µM	5.33 µM	7.1	7.14	12.9 µM	2.95 µM	1.86 µM	15.2 µM	8.72 µM	1.91
O=CN1N=C(c2cccc(Nc3ccnc4cc(Cl)ccc34)c2)CC1c1ccc(Cl)cc1 (stereo not given)	> 100 µM	> 100 µM	16.2 µM	> 100 µM	> 100 µM	> 100 µM	> 100 µM	> 100 µM	69.5 µM	> 100 µM	0.941 µM	3.08 µM	1.36	0.757	2.05 µM	0.954 µM	3.36 µM	3.8 µM	3.78 µM	1.04
CC1(C)N=C(N)N=C(N)N1c1cccc(CCc2ccccc2)c1	> 100 µM	> 100 µM	> 46.7 µM	17.6 µM	> 67.5 µM	> 100 µM	> 38.7 µM	> 100 µM	> 100 µM	> 100 µM	0.125 µM	3.82 µM	0.577	0.113	1.94 µM	40.2 µM	1.69 µM	0.634 µM	1.37 µM	1.29
CNC(=O)OCc1nc(SC)n(C)c1COC(=O)NC	836 µM	169 µM	300 µM	531 µM	290 µM	497 µM	307 µM	472 µM	299 µM	347 µM	–	–	–	–	–	–	–	–	–	–
CCn1c(-c2nonc2N)nc2cnc(Oc3cccc(NC(=O)c4ccc(N(C)C)cc4)c3)cc21	> 25 µM	> 25 µM	> 25 µM	> 25 µM	> 25 µM	> 25 µM	> 25 µM	> 25 µM	> 25 µM	> 25 µM	2.12 µM	16.9 µM	0.859	22	> 25 µM	0.688 µM	> 25 µM	> 25 µM	18.7 µM	> 25
COc1ccccc1C(=O)N(Cc1ccccc1)c1ccc(Cl)c(C(=O)OC(C)C)c1	> 100 µM	62.1 µM	> 100 µM	> 100 µM	40.5 µM	71.1 µM	> 100 µM	> 100 µM	> 100 µM	> 100 µM	–	–	–	–	–	–	–	–	–	–
CC(=O)OCC1OC(n2c3c(cc(C#N)c2=S)CCCC3)C(OC(C)=O)C(OC(C)=O)C1OC(C)=O (stereo not given)	> 100 µM	> 100 µM and 63.7 µM	> 100 µM	> 100 µM	> 100 µM	> 100 µM	> 100 µM	> 100 µM	> 100 µM	> 100 µM	–	> 100 µM and 20.4 µM	–	–	> 100 µM and 27 µM	> 100 µM and 42.1 µM	41.3 µM and > 100 µM	–	> 100 µM and 48.1 µM	–
C=C1C[C@@H]2O[C@H]3[C@H]4[C@@H](CC[C@@](C)(OC(=O)CCC)[C@H]42)[C@@H](C)C(=O)O[C@@]3(C)CC[C@H]1OO	34.4 µM	88.6 µM	> 100 µM	35.6 µM	> 100 µM	19.1 µM	29.4 µM	51.6 µM	41.1 µM	45.3 µM	18.5 µM	27.6 µM	36	17.8	52.2 µM	4.8 µM	15.9 µM	22.6 µM	21 µM	23.7
NC1=NCN(C2OC(CO)C(O)C2O)C(=O)N1 (stereo not given)	1080 µM	218 µM	765 µM	299 µM	7.06 µM	339 µM	1190 µM	1870 µM	342 µM	405 µM	–	–	–	–	–	–	–	–	–	–
CC[C@H]1OC(=O)[C@H](C)[C@@H](O[C@H]2C[C@@](C)(OC)[C@@H](O)[C@H](C)O2)[C@H](C)[C@@H](O[C@@H]2O[C@H](C)C[C@H](N(C)C)[C@H]2O)[C@](C)(OC)C/C(C)=C2/O[C@@]1(C)C=C2C	3.42 µM	3.75 µM	3.28 µM	3.03 µM	3.73 µM	2.93 µM	2.53 µM	5.75 µM	2.99 µM	–	1.63 µM	2.09 µM	1.66	1.59	1.85 µM	1.51 µM	1.14 µM	2.2 µM	1.62 µM	–
NCCCN=c1ccc2c3c1c(O)c1c(O)ccc(=O)c1c3[nH]n2CCNCCO	12.3 µM and 21.8 µM	8.38 µM and 5.39 µM	5.31 µM	15.4 µM and 129 µM	8.18 µM and 4.08 µM	11.2 µM and 3.84 µM	11.4 µM and 26.8 µM	15.7 µM and 20 µM	5.31 µM and 7.66 µM	14.2 µM and 28 µM	0.571 µM and 0.304 µM	3.03 µM and 1.21 µM	–	–	3.28 µM and 1.08 µM	1.1 µM and 0.528 µM	1.6 µM and 3.18 µM	3.34 µM and 1.15 µM	0.854 µM and 1.53 µM	3.67
CCOC(=O)/C(=C\c1ccc2ccccc2c1)P(=O)(OCC)OCC	11.6 µM	3.46 µM	5.88 µM	8.94 µM	5.22 µM	12 µM	3.43 µM	13.2 µM	5.17 µM	5.59 µM	3.08 µM	1.82 µM	2.3	3	2.16 µM	3.06 µM	1.96 µM	3.26 µM	2.29 µM	2.18
CCOc1ccc2cc(-c3nn(CC4CCNCC4)c4ncnc(N)c34)ccc2c1	46.2 µM	17.1 µM	27.6 µM	27.8 µM	29.8 µM	60 µM	31.5 µM	–	26.9 µM	29.3 µM	20.3 µM	3.96 µM	13.4	11.7	15.8 µM	19.2 µM	17.1 µM	–	13.9 µM	14.1
Cc1nc2ccccc2c(=O)n1/N=C(\N=Nc1cc(Cl)ccc1Cl)c1ccccc1	> 100 µM	> 100 µM	> 100 µM	> 100 µM	> 100 µM	> 100 µM	> 100 µM	> 100 µM	> 100 µM	> 100 µM	–	–	–	–	–	–	–	–	–	–
CN1CC[C@H](c2c(O)cc(O)c3c(=O)cc(-c4ccccc4Cl)oc23)[C@H](O)C1	> 10 µM	0.0671 µM	0.599 µM	> 10 µM	0.26 µM	> 10 µM	0.761 µM	> 10 µM	0.542 µM	0.293 µM	0.0946 µM	0.0204 µM	0.0807	0.0414	0.0668 µM	–	0.124 µM	0.0723 µM	0.139 µM	0.0696
COc1ccc(C)cc1NC(=S)C#N	> 100 µM	> 100 µM	> 100 µM	–	> 100 µM	> 100 µM	> 100 µM	> 100 µM	> 100 µM	> 100 µM	–	–	–	–	–	–	–	–	–	–
COc1cc2c3cc1Oc1c(OC)c(OC)cc4c1C(Cc1ccc(O)c(c1)Oc1ccc(cc1)CC3N(C)CC2)N(C)CC4 (stereo not given)	81.7 µM and 48.8 µM	14.8 µM	60.1 µM and 35.6 µM	> 100 µM	> 100 µM and 36.6 µM	48.5 µM and 40.6 µM	37.3 µM and 32.1 µM	> 100 µM	–	> 100 µM	14.4 µM	2.18 µM	14.7	27.7	20.2 µM	14 µM	10.9 µM	21.4 µM	2.16 µM	–
CCOC(=O)[C@@H]1CSC(CC)=C(C(=O)O)N1	> 100 µM	> 100 µM	> 100 µM	> 100 µM	> 100 µM	> 100 µM	> 100 µM	> 100 µM	> 100 µM	> 100 µM	> 100 µM	> 100 µM	> 100	> 100	> 100 µM	> 100 µM	> 100 µM	> 100 µM	> 100 µM	> 100
Cn1cnnc1[S-].[Au+].c1ccc([PH+](c2ccccc2)c2ccccc2)cc1	21.3 µM	2.8 µM	2.76 µM	–	3.17 µM	2.82 µM	3.23 µM	–	3 µM	2.99 µM	2.92 µM	1.42 µM	1.41	–	1.6 µM	1.5 µM	1.8 µM	–	1.61 µM	1.4
COc1ccc2c(c1)C(=O)c1c-2c(OCCN(C)C)nc2cc(OC)c(OC)cc12	21.5 µM	18.6 µM	> 100 µM	–	> 100 µM	31.6 µM	49.9 µM	> 100 µM	24.9 µM	61.6 µM	4.2 µM	4.48 µM	26.5	–	> 100 µM	3.68 µM	8.85 µM	1.62 µM	10.6 µM	18.5
CC(C)OP(=O)(O)c1ncc(-c2ccc(C(F)(F)F)cc2)c(NC2CCCCCC2)n1	> 100 µM	> 100 µM	> 100 µM	> 100 µM	–	> 100 µM	> 100 µM	> 100 µM	> 100 µM	> 100 µM	> 100 µM	> 100 µM	> 100	> 100	–	> 100 µM	> 100 µM	> 100 µM	> 100 µM	> 100
CCCCCC[C@H]1C(=O)O[C@H](C)[C@H](NC(=O)c2cccc(NC=O)c2OC)C(=O)O[C@@H](C)[C@@H]1OC(=O)CCC (tested in a mixture with another compound)	22.8 µM	32.4 µM	35.5 µM	–	60.5 µM	24.4 µM	38.2 µM	33.4 µM	33.3 µM	38.3 µM	7.24 µM	15.3 µM	11.9	–	18.1 µM	9.71 µM	14.9 µM	12.1 µM	15.5 µM	16
